Biological target: Histone deacetylase (Homo sapiens) (UniProt Q13547+O15379+Q9UBN7+Q92769+Q9UQL6+Q8WUI4+Q9BY41+Q96DB2+P56524+Q9UKV0+Q969S8)
Test: Inhibition of HDAC in human HeLa nuclear extract at 1 uM using Boc-Lys(acetyl)-AMC as fluorogenic substrate measured after 1 hr by flourescence plate reader method relative to control
Type: subcellular
Details: Nucleus

- inhibition: 82%
Compound: O=C(CCCSC[C@H](NS(=O)(=O)c1cccc(F)c1)C(=O)N[C@@H](Cc1c[nH]c2ccccc12)C(=O)NC1CCC1)NO

Reference: ChEMBL document CHEMBL5055644, “Cysteine derivatives as acetyl lysine mimics to inhibit zinc-dependent histone deacetylases for treating cancer” (Eur J Med Chem, 2021)
